Results as given in PubChem BioAssay (NCI).
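At the GI50, growth is halved. TGI: concentration producing complete growth inhibition.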

Tests used:
Test in all cases: growth of human tumour cells (NCI), 384-well format
[1] = system: 786-0 renal
[2] = system: SF-268 CNS
[3] = system: SR leukemia
[4] = system: HCT-15 colon
[5] = system: OVCAR-3 ovarian
[6] = system: HOP-92 NSCLC
[7] = system: KM12 colon
[8] = system: IGROV1 ovarian
[9] = system: HCT-116 colon
[10] = system: COLO 205 colon
[11] = system: OVCAR-8 ovarian
[12] = system: CAKI-1 renal
[13] = system: SF-539 CNS
[14] = system: NCI-H460 NSCLC
[15] = system: M14 melanoma
[16] = system: SNB-75 CNS
[17] = system: SNB-19 CNS
[18] = system: MALME-3M melanoma
[19] = system: OVCAR-4 ovarian
[20] = system: PC-3 prostate
[21] = system: SK-MEL-28 melanoma
[22] = system: MOLT-4 leukemia
[23] = system: UO-31 renal
[24] = system: A498 renal
[25] = system: NCI-H522 lung
[26] = system: BT-549 breast
[27] = system: NCI-H23 lung
[28] = system: SW-620 colon
[29] = system: RPMI-8226 leukemia
[30] = system: SF-295 CNS
[31] = system: UACC-257 melanoma
[32] = system: NCI-H226 lung
[33] = system: ACHN renal
[34] = system: CCRF-CEM leukemia
[35] = system: HT29 colon
[36] = system: TK-10 renal
[37] = system: NCI-H322M lung
[38] = system: EKVX NSCLC
[39] = system: HCC-2998 colon
[40] = system: A549 NSCLC
[41] = system: MDA-MB-435 melanoma
[42] = system: MDA-MB-468 breast
[43] = system: LOX IMVI melanoma
[44] = system: U251 glioblastoma
[45] = system: NCI/ADR-RES ovarian
[46] = system: UACC-62 melanoma
[47] = system: HS 578T breast
[48] = system: HL-60(TB) leukemia
[49] = system: MCF7 breast
[50] = system: K-562 leukemia
[51] = system: RXF 393 renal
[52] = system: SN12C renal
[53] = system: MDA-MB-231 breast
[54] = system: DU-145 prostate
[55] = system: HOP-62 NSCLC
[56] = system: SK-OV-3 ovarian
[57] = system: T-47D breast
[58] = system: SK-MEL-5 melanoma

Structure (SMILES): Cc1ccccc1C(C(=O)NC1CCCCC1)N(C(=O)CNc1ccc(C#N)cc1)c1cccc(F)c1 (stereo unspecified)
- GI50 [1]: 3.83 µM
- TGI [1]: 20.7 µM
- GI50 [2]: 7.32 µM
- TGI [2]: 55.9 µM
- GI50 [3]: 1.77 µM
- TGI [3]: 4.61 µM
- GI50 [4]: 65.1 µM
- TGI [4]: > 100 µM
- GI50 [5]: 3.58 µM
- TGI [5]: 35.3 µM
- GI50 [6]: 3.45 µM
- TGI [6]: 17 µM
- GI50 [7]: 7.76 µM
- TGI [7]: 89.6 µM
- GI50 [8]: 8.13 µM
- TGI [8]: 88.7 µM
- GI50 [9]: 4.46 µM
- TGI [9]: 33.9 µM
- GI50 [10]: 3.04 µM
- TGI [10]: 20.7 µM
- GI50 [11]: 4.15 µM
- TGI [11]: 58.3 µM
- GI50 [12]: 4.93 µM
- TGI [12]: 22.7 µM
- GI50 [13]: 5.6 µM
- TGI [13]: 21.4 µM
- GI50 [14]: 3.86 µM
- TGI [14]: > 100 µM
- GI50 [15]: 2.56 µM
- TGI [15]: 13.1 µM
- GI50 [16]: 2.61 µM
- TGI [16]: 16.2 µM
- GI50 [17]: 3.16 µM
- TGI [17]: 16.6 µM
- GI50 [18]: 0.713 µM
- TGI [18]: 2.59 µM
- GI50 [19]: 5.82 µM
- TGI [19]: 31.5 µM
- GI50 [20]: 7.84 µM
- TGI [20]: 56.1 µM
- GI50 [21]: 2.49 µM
- TGI [21]: 11.6 µM
- GI50 [22]: > 100 µM
- TGI [22]: > 100 µM
- GI50 [23]: 57.3 µM
- TGI [23]: > 100 µM
- GI50 [24]: 6.17 µM
- TGI [24]: 27.2 µM
- GI50 [25]: 7.86 µM
- TGI [25]: 67.7 µM
- GI50 [26]: 7.62 µM
- TGI [26]: 52.7 µM
- GI50 [27]: 4.65 µM
- TGI [27]: 24.4 µM
- GI50 [28]: 3.4 µM
- TGI [28]: > 100 µM
- GI50 [29]: 8.12 µM
- TGI [29]: > 100 µM
- GI50 [30]: 15 µM
- TGI [30]: 47.1 µM
- GI50 [31]: 3.77 µM
- TGI [31]: 18.5 µM
- GI50 [32]: 4.84 µM
- TGI [32]: 27.2 µM
- GI50 [33]: 11.6 µM
- TGI [33]: > 100 µM
- GI50 [34]: 98.4 µM
- TGI [34]: > 100 µM
- GI50 [35]: 5.56 µM
- TGI [35]: > 100 µM
- GI50 [36]: 19 µM
- TGI [36]: > 100 µM
- GI50 [37]: 13.4 µM
- TGI [37]: > 100 µM
- GI50 [38]: 11.6 µM
- TGI [38]: > 100 µM
- GI50 [39]: 1.48 µM
- TGI [39]: 11.2 µM
- GI50 [40]: 25 µM
- TGI [40]: > 100 µM
- GI50 [41]: 8.14 µM
- TGI [41]: > 100 µM
- GI50 [42]: 51.7 µM
- TGI [42]: > 100 µM
- GI50 [43]: 24.7 µM
- TGI [43]: > 100 µM
- GI50 [44]: 15.7 µM
- TGI [44]: > 100 µM
- GI50 [45]: 46.9 µM
- TGI [45]: > 100 µM
- GI50 [46]: 1.58 µM
- TGI [46]: 4.91 µM
- GI50 [47]: 3.36 µM
- TGI [47]: 20.1 µM
- GI50 [48]: 1.15 µM
- TGI [48]: 3.91 µM
- GI50 [49]: 14.6 µM
- TGI [49]: > 100 µM
- GI50 [50]: 3.25 µM
- TGI [50]: > 100 µM
- GI50 [51]: 4.41 µM
- TGI [51]: 24.7 µM
- GI50 [52]: 4.43 µM
- TGI [52]: 66.8 µM
- GI50 [53]: 5.23 µM
- TGI [53]: 29.4 µM
- GI50 [54]: 12.6 µM
- TGI [54]: > 100 µM
- GI50 [55]: 6.88 µM
- TGI [55]: 45.3 µM
- GI50 [56]: 8.22 µM
- TGI [56]: 40.4 µM
- GI50 [57]: 7.89 µM
- TGI [57]: > 100 µM
- GI50 [58]: 3.12 µM
- TGI [58]: 17.8 µM
